Data from patent publication US20230212549A1, “COMPOUNDS COMPRISING A […] LIGAND AND USE THEREOF” (priority 2021, published 2023).
Numbered stars: 1 amine (or outer) side, 2 acyl side, 3 side chain; on linkers, the order of the positions; unused ones are H or OH. Bridge positions count the residues as written; N and C are the ends. Square brackets hold non-standard residues; d marks the D form. Peptide text beside a SMILES is read from it. * marks the point of attachment. X6 = NCCNCC(CNCCN)C(=O)NCCOCCOCCOCCOCCOCCOCCC(=O)NCCCOCCOCCOCCCN*; X1 = NCCNCC(CNCCN)C(=O)N1CCN(CC(=O)NCCCOCCOCCOCCCN*)CC1; mXylylene = c1cc(C[*:1])cc(C[*:2])c1; Suc = O=C(CCC(=O)[*:2])[*:1]; Nle = CCCC[C@H](N)C(=O)O

Assays:
in vivo [1] = settings: swiss nude, mouse, iv
[2] = Radiochemical purity by HPLC of ^99mTc-labeled compounds; format: physicochemical; settings: 99Tc-labeled compounds
Procedure: 100-500 MBq of ^99mTcO4 (in saline) were mixed with 11 μl of 0.5 M phosphate buffer pH 11.5-12.0 and 1.1 μl of 0.1 M trisodium citrate per 100 μl radionuclide solution. […] The mixture was incubated for 30 min at 25-50′° C. At the end of the incubation time, the mixture was neutralized with 3.0 μl 1 M HCl per 10 μl phosphate buffer and TWEEN-20 was added at a final concentration of 0.100.

[3] = biological target: T1, FAP-expressing human WI-38 fibroblasts (Homo sapiens, UniProt Q12884); test: Competitive FACS binding assay
T1 construct: FAP-expressing human WI-38 fibroblasts (ECACC) were cultured in EMEM; host or cells: WI-38 human fibroblasts
Procedure: Cells were analyzed in an Attune NxT flow cytometer. […] […].
Cells were analyzed in an Attune NxT flow cytometer. […]

Human recombinant FAP [4] = biological target: T2, Human recombinant FAP (Homo sapiens, UniProt Q12884); test: FRET-based FAP protease activity assay; format: biochemical; parameters: purchased R&D systems 3715-SE
Human recombinant FAP [5] = biological target: T2, Human recombinant FAP; test: Surface plasmon resonance (Biacore) assay; format: binding
in vivo [6] = settings: female, athymic nude, mouse, iv
[7] = pIC50 Category (activity), Recombinant human FAP

T2 sequence (Q12884 whole entry): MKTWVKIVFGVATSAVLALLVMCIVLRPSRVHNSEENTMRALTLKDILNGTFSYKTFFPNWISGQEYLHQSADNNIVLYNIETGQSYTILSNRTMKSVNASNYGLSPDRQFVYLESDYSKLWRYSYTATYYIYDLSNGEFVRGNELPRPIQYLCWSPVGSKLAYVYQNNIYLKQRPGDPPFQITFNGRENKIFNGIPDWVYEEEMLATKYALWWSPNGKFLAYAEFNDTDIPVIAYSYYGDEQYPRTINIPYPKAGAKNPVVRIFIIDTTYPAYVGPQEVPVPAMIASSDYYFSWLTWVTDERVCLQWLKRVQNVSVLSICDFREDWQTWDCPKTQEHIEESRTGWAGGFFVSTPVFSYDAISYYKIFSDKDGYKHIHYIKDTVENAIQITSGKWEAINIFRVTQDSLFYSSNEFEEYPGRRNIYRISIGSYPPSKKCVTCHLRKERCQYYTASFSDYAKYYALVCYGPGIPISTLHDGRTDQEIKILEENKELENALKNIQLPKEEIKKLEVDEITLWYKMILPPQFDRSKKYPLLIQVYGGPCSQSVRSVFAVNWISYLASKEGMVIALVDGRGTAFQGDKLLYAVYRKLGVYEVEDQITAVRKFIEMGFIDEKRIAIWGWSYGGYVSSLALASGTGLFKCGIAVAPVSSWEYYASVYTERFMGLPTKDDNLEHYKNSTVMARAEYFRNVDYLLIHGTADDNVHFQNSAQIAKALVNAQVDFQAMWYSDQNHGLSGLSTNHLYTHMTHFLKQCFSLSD
T1 sequence (Q12884 whole entry): as above

Row | SMILES | tissue uptake at 1 h (in vivo [1]; blood pool surrogate (BPS)) [%ID/g] | tissue uptake at 3 h (in vivo [1]; blood pool surrogate (BPS)) [%ID/g] | tissue uptake at 6 h (in vivo [1]; blood pool surrogate (BPS)) [%ID/g] | tissue uptake at 1 h (in vivo [1]; kidneys) [%ID/g] | tissue uptake at 3 h (in vivo [1]; kidneys) [%ID/g] | tissue uptake at 6 h (in vivo [1]; kidneys) [%ID/g] | tissue uptake at 1 h (in vivo [1]; tumor) [%ID/g] | tissue uptake at 3 h (in vivo [1]; tumor) [%ID/g] | tissue uptake at 6 h (in vivo [1]; tumor) [%ID/g] | HPLC Area % at end of synthesis [2] [%] | IC50 [3] [nM] | IC50 (Human recombinant FAP [4]; [7]) [nM] | HPLC Area % appr. 4 h post end of synthesis [2] [%] | other results
1 | CCCC[C@H](NC(=O)CCC(=O)NCCCOCCOCCOCCCNC(=O)CCOCCOCCOCCOCCOCCOCCNC(=O)C(CNCCN)CNCCN)C(=O)N[C@H]1CSCc2cccc(c2)CSCC(C(=O)O)NC(=O)[C@H](Cc2ccccc2)NC(=O)[C@H](CCC(N)=O)NC(=O)[C@H]([C@@H](C)O)NC(=O)[C@@H]2CCCN2C(=O)[C@@H]2CCCN2C1=O (stereo partly drawn) [3BP-4552, N4Ac-PEG6-Ttds-Nle-[Cys(3MeBn)-Pro-Pro-Thr-Gln-Phe-Cys]-OH] | 0.52 | 0.14 | 0.07 | 3.17 | 3.4 | 1.34 | 7.92 | 6.86 | 5.21 | 88.3 | 10 to 79.4 | 10 to 79.4 | – | –
2 | CCCC[C@H](NC(=O)CCC(=O)NCCCOCCOCCOCCCNC(=O)CN1CCN(C(=O)C(CNCCN)CNCCN)CC1)C(=O)N[C@H]1CSCc2cccc(c2)CSC[C@@H](C(=O)O)NC(=O)[C@H](Cc2ccccc2)NC(=O)[C@H](CCC(=O)O)NC(=O)[C@H]([C@@H](C)O)NC(=O)[C@@H]2CCCN2C(=O)[C@@H]2CCCN2C1=O [3BP-4782, N4Ac-PPAc-Ttds-Nle-[Cys(3MeBn)-Pro-Pro-Thr-Glu-Phe-Cys]-OH] ({X1-Suc}-[Nle]CPPTEFC-OH; linker 2-8 via mXylylene) | 0.69 | 0.47 | 0.36 | 7.28 | 5.78 | 4.24 | 6.2 | 6.77 | 7.17 | 97.1 | 10 to 79.4 | 10 to 79.4 | 95.8 | –
3 | CCCC[C@H](NC(=O)CCC(=O)NCCCOCCOCCOCCCNC(=O)CCOCCOCCOCCOCCOCCOCCNC(=O)C(CNCCN)CNCCN)C(=O)N[C@H]1CSCc2cccc(c2)CSC[C@@H](C(=O)O)NC(=O)[C@H](Cc2ccccc2)NC(=O)[C@H](CCC(=O)O)NC(=O)[C@H]([C@@H](C)O)NC(=O)[C@@H]2CCCN2C(=O)[C@@H]2CCCN2C1=O [3BP-4780, N4Ac-PEG6-Ttds-Nle-[Cys(3MeBn)-Pro-Pro-Thr-Glu-Phe-Cys]-OH] ({X6-Suc}-[Nle]CPPTEFC-OH; linker 2-8 via mXylylene) | 0.81 | 0.61 | 0.43 | 8.11 | 6.14 | 4.36 | 6.71 | 7.01 | 7.92 | 95.0 | 10 to 79.4 | < 10 | 92.3 | –
4 | CCCCNC(=O)N[C@H]1CSCc2cc(cc(CN3CCN(C(=O)C(CNCCN)CNCCN)CC3)c2)CSC[C@@H](C(=O)O)NC(=O)[C@H](Cc2ccccc2)NC(=O)[C@H](CCC(N)=O)NC(=O)[C@H]([C@@H](C)O)NC(=O)[C@@H]2CCCN2C(=O)[C@@H]2CCCN2C1=O [3BP-4533, nBu-CAyl-[Cys(tMeBn(N4Ac-PP))-Pro-Pro-Thr-Gln-Phe-Cys]-OH] | 1.72 | 1.46 | 0.86 | 6.04 | 4.43 | 3.04 | 5.45 | 6.27 | 6.75 | 99.3 | < 10 | – | – | HPLC Area % appr. 4 h post end of synthesis ([2]; (3 h)): 98.2%; IC50 (Human recombinant FAP [4]; pIC50 Category (Activity), FRET-peptide substrate, 37° C.): < 10 nM
5 | CCCC[C@H](NC(=O)CCC(=O)NCCCOCCOCCOCCCNC(=O)CN1CCN(C(=O)C(CNCCN)CNCCN)CC1)C(=O)N[C@H]1CSCc2cccc(c2)CSC[C@@H](C(=O)N[C@@H](CC(=O)O)C(=O)O)NC(=O)[C@H](Cc2ccccc2)NC(=O)[C@H](CCC(=O)O)NC(=O)[C@H]([C@@H](C)O)NC(=O)[C@@H]2CCCN2C(=O)[C@@H]2CCCN2C1=O [3BP-4785, N4Ac-PPAc-Ttds-Nle-[Cys(3MeBn)-Pro-Pro-Thr-Glu-Phe-Cys]-Asp-OH] ({X1-Suc}-[Nle]CPPTEFCD-OH; linker 2-8 via mXylylene) | 0.92 | 0.64 | 0.48 | 3.47 | 2.14 | 1.63 | 4.2 | 4.14 | 4.32 | 95.3 | < 10 | < 10 | 93.8 | –
6 | CCCC[C@H](NC(=O)CCC(=O)NCCCOCCOCCOCCCNC(=O)CN1CCN(C(=O)C(CNCCN)CNCCN)CC1)C(=O)N[C@H]1CSCc2cncc(c2)CSCC(C(=O)O)NC(=O)[C@H](Cc2ccccc2)NC(=O)[C@H](CCC(N)=O)NC(=O)[C@H]([C@@H](C)O)NC(=O)[C@@H]2CCCN2C(=O)[C@@H]2CCCN2C1=O (stereo partly drawn) [3BP-4774, N4Ac-PPAc-Ttds-Nle-[Cys(3Lut)-Pro-Pro-Thr-Gln-Phe-Cys]-OH] | 0.08 | 0.06 | 0.03 | 1.87 | 0.85 | 0.48 | 6.14 | 3.7 | 1.74 | 88.8 | 10 to 79.4 | 10 to 79.4 | 86.1 | –
7 | CCCCNC(=O)N[C@H]1CSCc2cc(CSCCNC(=O)CN3CCN(CC(=O)O)CCN(CC(=O)O)CC3)cc(c2)CSCC(C(=O)O)NC(=O)[C@H](Cc2ccccc2)NC(=O)[C@H](CCC(N)=O)NC(=O)[C@H]([C@@H](C)O)NC(=O)[C@@H]2CCCN2C(=O)[C@@H]2CCCN2C1=O (stereo partly drawn) [3BP-5210, nBu-CAyl-[Cys(tMeBn(NOTA-AET))-Pro-Pro-Thr-Gln-Phe-Cys]-OH] | – | – | – | – | – | – | – | – | – | – | < 10 | < 10 | – | Kd (Human recombinant FAP [5]): < 10 nM; tissue uptake at 0.25 h (in vivo [6]; blood pool surrogate (BPS)): 2.72 %ID/g; tissue uptake at 1 h (in vivo [6]; blood pool surrogate (BPS)): 0.68 %ID/g; tissue uptake at 3 h (in vivo [6]; blood pool surrogate (BPS)): 0.14 %ID/g; tissue uptake at 0.25 h (in vivo [6]; kidneys): 37.3 %ID/g; tissue uptake at 1 h (in vivo [6]; kidneys): 5.61 %ID/g; tissue uptake at 3 h (in vivo [6]; kidneys): 0.42 %ID/g; tissue uptake at 0.25 h (in vivo [6]; tumor): 7.48 %ID/g; tissue uptake at 1 h (in vivo [6]; tumor): 8.9 %ID/g; tissue uptake at 3 h (in vivo [6]; tumor): 9.53 %ID/g
8 | CCCC[C@H](NC(=O)CCC(=O)NCCCOCCOCCOCCCNC(=O)CN1CCN(CC(=O)O)CCN(CC(=O)O)CC1)C(=O)N[C@H]1CSCc2cccc(c2)CSCC(C(=O)O)NC(=O)[C@H](Cc2ccccc2)NC(=O)[C@H](CCC(N)=O)NC(=O)[C@H]([C@@H](C)O)NC(=O)[C@@H]2CCCN2C(=O)[C@@H]2CCCN2C1=O (stereo partly drawn) [3BP-5201, NOTA-Ttds-Nle-[Cys(3MeBn)-Pro-Pro-Thr-Gln-Phe-Cys]-OH] | – | – | – | – | – | – | – | – | – | – | < 10 | 10 to 79.4 | – | Kd (Human recombinant FAP [5]): < 10 nM; tissue uptake at 0.25 h (in vivo [6]; blood pool surrogate (BPS)): 2.31 %ID/g; tissue uptake at 1 h (in vivo [6]; blood pool surrogate (BPS)): 0.85 %ID/g; tissue uptake at 3 h (in vivo [6]; blood pool surrogate (BPS)): 0.38 %ID/g; tissue uptake at 0.25 h (in vivo [6]; kidneys): 9.27 %ID/g; tissue uptake at 1 h (in vivo [6]; kidneys): 1.97 %ID/g; tissue uptake at 3 h (in vivo [6]; kidneys): 1 %ID/g; tissue uptake at 0.25 h (in vivo [6]; tumor): 5.56 %ID/g; tissue uptake at 1 h (in vivo [6]; tumor): 6.3 %ID/g; tissue uptake at 3 h (in vivo [6]; tumor): 6.25 %ID/g
